Test results: ChEMBL document CHEMBL1201862, “PubChem BioAssay data set” (2004)
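Grown in 96-well plates, cells were treated for 48 hours with each compound at five concentrations. Insufficient inhibition: endpoint recorded as highest concentration tested. The concentration for 50% growth inhibition is given as GI50.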 The source made the active and inactive calls. Cut-off read from the data, not from the text of the source: active = GI50 up to about 1.1 µM and inactive = higher.

Experiments:
Test in all cases: inhibition of tumour cell growth, NCI panel, 48 h
HOP-18 = test system: HOP-18
RXF 631 = test system: RXF 631
M19-MEL = test system: M19-MEL
KM-20L2 = test system: KM-20L2
SNB-78 = test system: SNB-78
DLD-1 = test system: DLD-1
DMS-273 = test system: DMS-273
XF498 = test system: XF498
MDA-N = test system: MDA-N

Measured: GI50

CC1CCCc2c(CC3CC(=O)NC(=O)C3)n[nH]c21 (stereo unspecified)
inactive: HOP-18 > 100 µM | RXF 631 > 100 µM | M19-MEL > 100 µM | KM-20L2 > 100 µM | SNB-78 > 100 µM | DLD-1 > 100 µM | DMS-273 > 100 µM | XF498 > 100 µM

C/C(=N\N)C(CN1CCCCC1)C(c1ccccc1)c1c(O)c2ccccc2oc1=O (stereo unspecified)
inactive: RXF 631 > 100 µM | M19-MEL > 100 µM | KM-20L2 > 100 µM | SNB-78 > 100 µM | DLD-1 > 100 µM | DMS-273 > 100 µM | XF498 > 100 µM

Cc1oc2c(C)c3oc(=O)cc(C)c3cc2c1CN
inactive: HOP-18 > 100 µM | RXF 631 29.1 µM | M19-MEL 31 µM | KM-20L2 34.4 µM | SNB-78 53.5 µM | DLD-1 43.3 µM | XF498 20.7 µM

CCCCCNC(=O)CCCCCCCCCCCNC(=O)CCCCCCCCCCN1C=CC(=CC=C2C=CC(=O)C=C2)C=C1
inactive: RXF 631 > 100 µM | M19-MEL 34.4 µM | KM-20L2 > 100 µM | SNB-78 15.3 µM | DLD-1 > 100 µM | DMS-273 23.8 µM | XF498 10.3 µM

O=[N+]([O-])c1ccc(CNC2=NNS(=O)(=O)c3ccccc32)cc1
inactive: RXF 631 > 100 µM | M19-MEL > 100 µM | KM-20L2 > 100 µM | SNB-78 > 100 µM | DLD-1 > 100 µM | DMS-273 > 100 µM | XF498 > 100 µM

COc1cc(-c2ccccc2)c(OC)cc1CCl
inactive: HOP-18 > 100 µM | RXF 631 > 100 µM | M19-MEL > 100 µM | KM-20L2 > 100 µM | SNB-78 > 100 µM | DLD-1 > 100 µM | DMS-273 > 100 µM | XF498 > 100 µM

O=c1c2ccccc2c(=O)c2c1c1[nH]c3ccccc3c1c1c(=O)c3ccccc3c(=O)c21
inactive: HOP-18 > 100 µM | RXF 631 > 100 µM | M19-MEL > 100 µM | KM-20L2 > 100 µM | SNB-78 > 100 µM | DLD-1 > 100 µM | DMS-273 > 100 µM | XF498 > 100 µM

O=C(Nc1ccc([N+](=O)[O-])cc1C(=O)O)c1ccc([N+](=O)[O-])cc1
inactive: RXF 631 21.1 µM | M19-MEL 61 µM | KM-20L2 18.4 µM | DLD-1 35.4 µM | DMS-273 31.2 µM | XF498 23.3 µM

C=C1CCCC2[C@](C)(CC3=C(O)C(=O)C=C(OC)C3=O)[C@@H](C)CC[C@]12C (stereo partly specified)
inactive: HOP-18 1.7 µM | RXF 631 9.62 µM | M19-MEL 1.81 µM | KM-20L2 4.24 µM | DLD-1 7.18 µM | XF498 16.7 µM

CC#CC#C/C=C1\C=CC2(OC=CC2OC(C)=O)O1 (stereo unspecified)
inactive: RXF 631 14.5 µM | KM-20L2 3.51 µM | MDA-N 15.8 µM | SNB-78 10.4 µM | DLD-1 16.5 µM | DMS-273 20.1 µM | XF498 21.3 µM
